Test results published in paper PMC8456958, “Selective Bacterial Targeting and Infection‐Triggered Release of Antibiotic Colistin Conjugates” (Angewandte Chemie (International Ed. in English), 2021).
Positions of bridges follow the written chain, without caps; N, C: chain ends. Non-standard residues stand in square brackets, D forms with d. Residues, ends and D or L forms follow the SMILES beside them. *: point of attachment. Heptanoyl(6-Me) = CC(C)CCCCC(=O)*; Dab = NCC[C@H](N)C(=O)O

Molecular target: T1, neutrophil elastase (NE) (Homo sapiens, UniProt P08246)
T1 construct: Activity of NE after co‐cultivation of PMN with E. coli K12 in presence of 1 or 6; endogenous in cells; host or cells: primary human PMN isolated from fresh venous whole blood of healthy volunteers, co-cultivated with E. coli K12
T1 sequence (P08246 30-267): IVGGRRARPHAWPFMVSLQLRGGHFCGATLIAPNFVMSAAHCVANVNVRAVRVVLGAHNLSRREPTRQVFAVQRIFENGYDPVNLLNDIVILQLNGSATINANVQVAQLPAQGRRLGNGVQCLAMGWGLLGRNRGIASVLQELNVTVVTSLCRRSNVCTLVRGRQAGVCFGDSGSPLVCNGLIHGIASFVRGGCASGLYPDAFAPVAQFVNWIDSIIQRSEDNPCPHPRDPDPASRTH
Assay: Activity of NE in co-cultivation of PMN with E. coli K12 (MeOSuc-AAPV-pNA cleavage)
Type: cell-based
Settings: 10 μM; PMN co-cultivated with E. coli K12, 1 h, 37 °C, RPMI 1640/HEPES-NaCl 1:1; mean of two experiments
Procedure: Figure 5 Cellular proof of concept for triggered antibiotic release from 6. a) Release of neutrophil elastase (NE) from neutrophil granulocytes. PMN were isolated and suspended in RPMI 1640. For activation, 0.1 μM fMLP was added. The samples were incubated for 1 h at 37 °C, centrifuged to remove cells, and the NE concentration was determined in the supernatant by ELISA. Values normalized to 1×10^6 cells mL^−1. Data are presented as the mean of 4 separate experiments. *p<0.03 compared to unactivated. b) Activity of NE after co‐cultivation of PMN with E. coli K12 in presence of 1 or 6. […] After 1 h colistin concentrations were determined by HPLC–MS. […]
Calculation of results: All samples and standards were measured in duplicate. The standard curve was constructed by plotting the mean absorbance for each standard on the y-axis against the concentration on the x-axis. A linear regression analysis was performed and the results for the samples were calculated. […]
on. […] The plate was incubated in a microplate reader for 60 min at 37 °C with shaking for 5 sec at 50 rpm once per minute.
Every minute readings were taken at 410 nm. For the calculation of the cleavage velocity, the difference in absorbance after an initialization phase at 15 min and a further incubation time of 30 min was used and related to total cleavage of the substrate. The blank was subtracted from the readings. […]

CC(C)CCCCC(=O)N[C@@H](CCN)C(=O)N[C@H](C(=O)N[C@@H](CCN)C(=O)N[C@H]1CCNC(=O)[C@H]([C@@H](C)O)NC(=O)[C@H](CCN)NC(=O)[C@H](CCN)NC(=O)[C@H](CC(C)C)NC(=O)[C@@H](CC(C)C)NC(=O)[C@H](CCN)NC1=O)[C@@H](C)O [Compound 1, colistin B, reference compound] ({Heptanoyl(6-Me)}-[Dab]T[Dab][Dab][Dab][dL]L[Dab][Dab]T; lactam 4-C)
enhancing effect on the activity of NE: 2.3–2.5 fold
